SMILES strings stand for the structures.

Eleven compounds from patent publication US11667649B2, “Heteroaromatic macrocyclic ether chemotherapeutic agents” (Nuvalent, Inc., priority 2020, dated 2023) can be followed below.

This experiment has as its system TPM3-NTRK1-wt IC50 / primary target (e.g. CD74-ROS1-wt) IC50, Ba/F3 cells. The experiment in a line: Cell assay TRKA selectivity (TRKA potency divided by primary target potency). In kind it is cell-based. Particulars: for TPM3-NTRK1-wt/CD74-ROS1-G2032R: TRKA selectivity ratio: TPM3-NTRK1-wt IC50 / CD74-ROS1-G2032R IC50, Ba/F3 cells; for TPM3-NTRK1-wt/CD74-ROS1-wt: TRKA selectivity ratio: TPM3-NTRK1-wt IC50 / CD74-ROS1-wt IC50, Ba/F3 cells; for TPM3-NTRK1-wt/EML4-ALK-L1196M-G1202R: TRKA selectivity ratio: TPM3-NTRK1-wt IC50 / EML4-ALK-L1196M-G1202R IC50, Ba/F3 cells; for TPM3-NTRK1-wt/EML4-ALK-wt: TRKA selectivity ratio: TPM3-NTRK1-wt IC50 / EML4-ALK-wt IC50, Ba/F3 cells. The source says: Genes encoding CD74-ROS1 wild-type (wt), CD74-ROS1 G2032R, CD74-ROS1 S1986F, CD74-ROS1 L2026M, CD74-ROS1 D2033N, EML4-ALK wt (variant 1), EML4-ALK G1202R (variant 1), EML4-ALK L1196M/G1202R (variant 1), EML4-ALK G1202R/G1269A (variant 1), EML4-ALK G1202R/L1198F (variant 1), and TPM3-TRKA were synthesized at GeneRay, cloned into the retroviral construct pMSCV-puro (Biovector), and packaged into retroviral particles. The virus was used to infect Ba/F3 cells (RIKEN) at multiplicity of infection=1 for 1 day. Infected cells were rescued in media (RPMI-1640 with 10% fetal bovine serum and 1% streptomycin and penicillin) supplemented with mouse IL-3 (10 ng/mL) for 2 days, and stable cell lines were selected by IL-3 withdrawal and puromycin (0.8 μg/mL) for 7 days. Monoclones were selected by single-cell dilution in IL-3-free medium containing puromycin (0.8 μg/mL). Transformation of desired genes was confirmed by Sanger sequencing and western blot using the following antibodies: ROS1 (CST #3287), ALK (CST #3633), and pan-TRK (Abcam #76291).
Stable cells were plated at 1,000 cells/well (40 μL) in a 384-well plate for 1 day. Test compounds (40 nL) were then added in a 3-fold dilution series using the TECAN EVO200 liquid handler and incubated for 72 hours. Plates were equilibrated at room temperature for 15 minutes followed by addition of 40 μL CellTiter-Glo reagent (Promega). Luminescence was measured on a plate reader. Half-maximal inhibitory concentration (IC50) was calculated from percent inhibition and inhibitor concentration using four-parameter logistic regression. […] Exemplary data is given in Table 4 (nd is not determined).
TRKA selectivity was calculated by dividing a compound's TRKA potency by its primary target potency (e.g. TPM3-NTRK1-wt IC50/CD74-ROS1-wt IC50). Compound selectivity can be interpreted by binning ratio values: bin A for very high selectivity, ratio>30-fold; bin B for high selectivity, ratio>10-fold; bin C for moderate selectivity, ratio≥1; and bin D for low selectivity, ratio<1. […] (nd=not determined).

As to `C[C@H]1Oc2cc(cnc2N)-c2c(C#N)ncn2Cc2cn(C)nc2-c2ccc(F)cc21` [Example 13, (19R)-22-amino-16-fluoro-10,19-dimethyl-20-oxa-4,6,10,11,23-pentaazapentacyclo[19.3.1.0^2,^6.0^8,^12.0^13,^18]pentacosa-1(24),2,4,8,11,13,15,17,21(25),22-decaene-3-carbonitrile], the TPM3-NTRK1-wt/CD74-ROS1-G2032R entry is reported as “A (bin A for very high selectivity, ratio>30-fold)”; the TPM3-NTRK1-wt/CD74-ROS1-wt result was “A (bin A for very high selectivity, ratio>30-fold)”; the TPM3-NTRK1-wt/EML4-ALK-L1196M-G1202R entry is given as “A (bin A for very high selectivity, ratio>30-fold)”; the TPM3-NTRK1-wt/EML4-ALK-wt entry is given as “A (bin A for very high selectivity, ratio>30-fold)”.
Regarding `C[C@H]1Oc2cc(cnc2N)-c2c(C#N)cnn2Cc2cccnc2-c2ccc(F)cc21` [Example 14, (20R)-23-amino-17-fluoro-20-methyl-21-oxa-5,6,12,24-tetraazapentacyclo[20.3.1.0^2,^6.0^8,^13.0^14,^19]hexacosa-1(25),2,4,8(13),9,11,14,16,18,22(26),23-undecaene-3-carbonitrile], the TPM3-NTRK1-wt/CD74-ROS1-G2032R entry is listed as “B (bin B for high selectivity, ratio>10-fold)”; the TPM3-NTRK1-wt/CD74-ROS1-wt result is given as “A (bin A for very high selectivity, ratio>30-fold)”; the TPM3-NTRK1-wt/EML4-ALK-L1196M-G1202R result is reported as “C (bin C for moderate selectivity, ratio≥1)”; the TPM3-NTRK1-wt/EML4-ALK-wt entry is recorded as “A (bin A for very high selectivity, ratio>30-fold)”.
As for `C[C@H]1Oc2cc(cnc2N)-c2c(C#N)noc2Cc2cn(C)nc2-c2ccc(F)cc21` [Example 15, (19R)-22-amino-16-fluoro-10,19-dimethyl-5,20-dioxa-4,10,11,23-tetraazapentacyclo[19.3.1.0^2,^6.0^8,^12.0^13,^18]pentacosa-1(24),2(6),3,8,11,13(18),14,16,21(25),22-decaene-3-carbonitrile], the TPM3-NTRK1-wt/CD74-ROS1-G2032R entry is on record as “A (bin A for very high selectivity, ratio>30-fold)”; the TPM3-NTRK1-wt/CD74-ROS1-wt entry is “A (bin A for very high selectivity, ratio>30-fold)”; the TPM3-NTRK1-wt/EML4-ALK-L1196M-G1202R entry is recorded as “B (bin B for high selectivity, ratio>10-fold)”; the TPM3-NTRK1-wt/EML4-ALK-wt entry is “A (bin A for very high selectivity, ratio>30-fold)”.
Regarding `CCc1nnn2c1-c1cnc(N)c(c1)O[C@H](C)c1cc(F)ccc1-c1ncc(F)cc1C2` [Example 16, (20R)-3-ethyl-10,17-difluoro-20-methyl-21-oxa-4,5,6,12,24-pentaazapentacyclo[20.3.1.0^2,^6.0^8,^13.0^14,^19]hexacosa-1(25),2,4,8(13),9,11,14,16,18,22(26),23-undecaen-23-amine], the TPM3-NTRK1-wt/CD74-ROS1-G2032R entry was “B (bin B for high selectivity, ratio>10-fold)”; the TPM3-NTRK1-wt/CD74-ROS1-wt entry was “A (bin A for very high selectivity, ratio>30-fold)”; the TPM3-NTRK1-wt/EML4-ALK-L1196M-G1202R result is on record as “C (bin C for moderate selectivity, ratio≥1)”; the TPM3-NTRK1-wt/EML4-ALK-wt result was “B (bin B for high selectivity, ratio>10-fold)”.
Regarding `C[C@H]1Oc2cc(cnc2N)-c2c(C(F)F)cnn2Cc2cc(F)cnc2-c2ccc(F)cc21` [Example 17, (20R)-3-(difluoromethyl)-10,17-difluoro-20-methyl-21-oxa-5,6,12,24-tetraazapentacyclo[20.3.1.0^2,^6.0^8,^13.0^14,^19]hexacosa-1(25),2,4,8(13),9,11,14,16,18,22(26),23-undecaen-23-amine], the TPM3-NTRK1-wt/CD74-ROS1-G2032R entry is listed as “B (bin B for high selectivity, ratio>10-fold)”; the TPM3-NTRK1-wt/CD74-ROS1-wt entry is “A (bin A for very high selectivity, ratio>30-fold)”; the TPM3-NTRK1-wt/EML4-ALK-L1196M-G1202R result is reported as “D (bin D for low selectivity, ratio<1)”; the TPM3-NTRK1-wt/EML4-ALK-wt result is on record as “B (bin B for high selectivity, ratio>10-fold)”.
For `Cc1nc(C#N)c2n1Cc1cccnc1-c1ccc(F)cc1[C@@H](C)Oc1cc-2cnc1N` [Example 18, (20R)-23-amino-17-fluoro-5,20-dimethyl-21-oxa-4,6,12,24-tetraazapentacyclo[20.3.1.0^2,^6.0^8,^13.0^14,^19]hexacosa-1(25),2,4,8(13),9,11,14,16,18,22(26),23-undecaene-3-carbonitrile], the TPM3-NTRK1-wt/CD74-ROS1-G2032R entry is on record as “A (bin A for very high selectivity, ratio>30-fold)”; the TPM3-NTRK1-wt/CD74-ROS1-wt entry is “A (bin A for very high selectivity, ratio>30-fold)”; the TPM3-NTRK1-wt/EML4-ALK-L1196M-G1202R entry was “A (bin A for very high selectivity, ratio>30-fold)”; the TPM3-NTRK1-wt/EML4-ALK-wt result is reported as “A (bin A for very high selectivity, ratio>30-fold)”.
Consider `CCc1noc2c1-c1cnc(N)c(c1)O[C@H](C)c1cc(F)ccc1-c1nn(C)cc1C2` [Example 19, (19R)-3-ethyl-16-fluoro-10,19-dimethyl-5,20-dioxa-4,10,11,23-tetraazapentacyclo[19.3.1.0^2,^6.0^8,^12.0^13,^18]pentacosa-1(24),2(6),3,8,11,13,15,17,21(25),22-decaen-22-amine], for which the TPM3-NTRK1-wt/CD74-ROS1-G2032R entry was “A (bin A for very high selectivity, ratio>30-fold)”; the TPM3-NTRK1-wt/CD74-ROS1-wt result is reported as “A (bin A for very high selectivity, ratio>30-fold)”; the TPM3-NTRK1-wt/EML4-ALK-L1196M-G1202R result is given as “C (bin C for moderate selectivity, ratio≥1)”; the TPM3-NTRK1-wt/EML4-ALK-wt entry was “A (bin A for very high selectivity, ratio>30-fold)”.
With `CCn1nnc2c1-c1cnc(N)c(c1)O[C@H](C)c1cc(F)ccc1-c1nn(C)cc1C2` [Example 20, (19R)-3-ethyl-16-fluoro-10,19-dimethyl-20-oxa-3,4,5,10,11,23-hexaazapentacyclo[19.3.1.0^2,^6.0^8,^12.0^13,^18]pentacosa-1(24),2(6),4,8,11,13,15,17,21(25),22-decaen-22-amine], the TPM3-NTRK1-wt/CD74-ROS1-G2032R result is “A (bin A for very high selectivity, ratio>30-fold)”; the TPM3-NTRK1-wt/CD74-ROS1-wt result is given as “A (bin A for very high selectivity, ratio>30-fold)”; the TPM3-NTRK1-wt/EML4-ALK-L1196M-G1202R result was “B (bin B for high selectivity, ratio>10-fold)”; the TPM3-NTRK1-wt/EML4-ALK-wt result is recorded as “A (bin A for very high selectivity, ratio>30-fold)”.
In the case of `C[C@H]1Oc2cc(cnc2N)-c2c(C#N)nn(C)c2Cc2cn(C)nc2-c2ccc(F)cc21` [Example 21, (19R)-22-amino-16-fluoro-5,10,19-trimethyl-20-oxa-4,5,10,11,23-pentaazapentacyclo[19.3.1.0^2,^6.0^8,^12.0^13,^18]pentacosa-1(24),2(6),3,8,11,13,15,17,21(25),22-decaene-3-carbonitrile], the TPM3-NTRK1-wt/CD74-ROS1-G2032R result is given as “A (bin A for very high selectivity, ratio>30-fold)”; the TPM3-NTRK1-wt/CD74-ROS1-wt entry was “A (bin A for very high selectivity, ratio>30-fold)”; the TPM3-NTRK1-wt/EML4-ALK-L1196M-G1202R result is given as “B (bin B for high selectivity, ratio>10-fold)”; the TPM3-NTRK1-wt/EML4-ALK-wt entry is recorded as “A (bin A for very high selectivity, ratio>30-fold)”.
For `C[C@H]1Oc2cc(cnc2N)-c2c(cnn2CC(F)F)Cc2cn(C)nc2-c2ccc(F)cc21` [Example 22, (19R)-3-(2,2-difluoroethyl)-16-fluoro-10,19-dimethyl-20-oxa-3,4,10,11,23-pentaazapentacyclo[19.3.1.0^2,^6.0^8,^12.0^13,^18]pentacosa-1(24),2(6),4,8,11,13,15,17,21(25),22-decaen-22-amine], the TPM3-NTRK1-wt/CD74-ROS1-G2032R result is listed as “A (bin A for very high selectivity, ratio>30-fold)”; the TPM3-NTRK1-wt/CD74-ROS1-wt result is “A (bin A for very high selectivity, ratio>30-fold)”; the TPM3-NTRK1-wt/EML4-ALK-L1196M-G1202R entry is listed as “A (bin A for very high selectivity, ratio>30-fold)”; the TPM3-NTRK1-wt/EML4-ALK-wt entry was “A (bin A for very high selectivity, ratio>30-fold)”.
In the case of `CCc1nnn2c1-c1cnc(N)c(c1)O[C@H](C)c1cc(F)ccc1-c1nn(C)cc1C2` [Example 23, (19R)-3-ethyl-16-fluoro-10,19-dimethyl-20-oxa-4,5,6,10,11,23-hexaazapentacyclo[19.3.1.0^2,^6.0^8,^12.0^13,^18]pentacosa-1(24),2,4,8,11,13,15,17,21(25),22-decaen-22-amine], the TPM3-NTRK1-wt/CD74-ROS1-G2032R result was “A (bin A for very high selectivity, ratio>30-fold)”; the TPM3-NTRK1-wt/CD74-ROS1-wt entry was “A (bin A for very high selectivity, ratio>30-fold)”; the TPM3-NTRK1-wt/EML4-ALK-L1196M-G1202R result was “C (bin C for moderate selectivity, ratio≥1)”; the TPM3-NTRK1-wt/EML4-ALK-wt result is “A (bin A for very high selectivity, ratio>30-fold)”.
